Reference: ChEMBL document CHEMBL3045918, “Synthesis, crystal structure, and insecticidal activities of highly congested hexahydroimidazo[1,2-a]pyridine derivatives: effect of conformation on activities” (2010)

Legend:
Type in all cases: functional
Aphis craccivora [1] = assay: Insecticidal activity against Aphis craccivora (cowpea aphid) in compound treated horsebean plant leaves assessed as mortality at 500 mg/L measured after 24 hr by leaf-dip method
Mythimna separata [2] = assay: Insecticidal activity against second-instar larvae Mythimna separata (Oriental armyworm) in compound treated corn leaves assessed as mortality at 500 mg/L measured after 48 hr
Mythimna separata [3] = assay: Insecticidal activity against second-instar larvae Mythimna separata (Oriental armyworm) in compound treated corn leaves assessed as mortality measured after 48 hr
Aphis craccivora [4] = assay: Insecticidal activity against Aphis craccivora (cowpea aphid) in compound treated horsebean plant leaves assessed as mortality measured after 24 hr by leaf-dip method
Nilaparvata lugens [5] = assay: Insecticidal activity against compound resistant second-instar larvae Nilaparvata lugens (brown planthopper) in compound rice seedlings assessed as toxicity at 25 degC measured after 6 days relative to control
Nilaparvata lugens [6] = assay: Insecticidal activity against compound resistant second-instar larvae Nilaparvata lugens (brown planthopper) in compound rice seedlings assessed as mortality at 25 degC measured after 6 days; conditions: 144 h
Nilaparvata lugens [7] = assay: Insecticidal activity against compound sensitive second-instar larvae Nilaparvata lugens (brown planthopper) in compound rice seedlings assessed as mortality at 25 degC measured after 6 days; conditions: 144 h
Nilaparvata lugens [8] = assay: Insecticidal activity against compound sensitive second-instar larvae Nilaparvata lugens (brown planthopper) in compound rice seedlings assessed as toxicity at 25 degC measured after 6 days relative to control

Structure (SMILES)	mortality at 500 µg/mL (Aphis craccivora [1]) [%]	mortality at 500 µg/mL (Mythimna separata [2]) [%]	LC50 (Mythimna separata [3]) [µM]	LC50 (Aphis craccivora [4]) [µM]	Ratio (Nilaparvata lugens [5])	LC50 (Nilaparvata lugens [6]) [µM]	LC50 (Nilaparvata lugens [7]) [µM]	Ratio (Nilaparvata lugens [8])
O=[N+]([O-])C1=C2N(Cc3ccc(Cl)nc3)CCN2[C@H](c2cccs2)[C@@](C2=NCCN2Cc2ccc(Cl)nc2)([N+](=O)[O-])[C@H]1c1cccs1	85.6	0						
Cc1ccc([C@@H]2C([N+](=O)[O-])=C3N(Cc4ccc(Cl)nc4)CCN3[C@H](c3ccc(C)s3)[C@@]2(C2=NCCN2Cc2ccc(Cl)nc2)[N+](=O)[O-])s1	100	100	27.9	3.79				
O=[N+]([O-])C1=C2N(Cc3ccc(Cl)nc3)CCN2[C@H](c2ccco2)[C@@](C2=NCCN2Cc2ccc(Cl)nc2)([N+](=O)[O-])[C@@H]1c1ccco1	100	100	26.5	4.43	10.32	3.76	1.07	1.62
O=[N+]([O-])C1=C2N(Cc3ccc(Cl)nc3)CCN2[C@H](c2cccs2)[C@@](C2=NCCN2Cc2ccc(Cl)nc2)([N+](=O)[O-])[C@@H]1c1cccs1	100	100	44.1	46.8				
O=[N+]([O-])/N=C1\NCCN1Cc1ccc(Cl)nc1 [IMIDACLOPRID]	100	100	125	35	1	38.8	1.73	1
Cc1ccc([C@H]2C([N+](=O)[O-])=C3N(Cc4ccc(Cl)nc4)CCN3[C@H](c3ccc(C)s3)[C@@]2(C2=NCCN2Cc2ccc(Cl)nc2)[N+](=O)[O-])s1	100	0						
Cc1ccc([C@@H]2C([N+](=O)[O-])=C3N(Cc4ccc(Cl)nc4)CCN3[C@H](c3ccc(C)o3)[C@@]2(C2=NCCN2Cc2ccc(Cl)nc2)[N+](=O)[O-])o1	100	100	43	1.31				
O=[N+]([O-])C1=C2N(Cc3ccc(Cl)nc3)CCN2[C@H](c2ccco2)[C@@](C2=NCCN2Cc2ccc(Cl)nc2)([N+](=O)[O-])[C@H]1c1ccco1	87	0						
